Source: US20190292189A1, “LIM KINASE INHIBITORS” (VIRONGY, LLC, priority 2016, published 2019)

Columns and labels:
Assay in all cases: Kinase profiling at 1 μM (Reaction Biology)
Format in all cases: biochemical
Conditions in all cases: ATP 10 μM
ALK = molecular target: T1, ALK (Homo sapiens, UniProt Q9UM73)
T1 construct: purchased Reaction Biology Corporation
Description: (§1) Profiling was carried out at Reaction Biology Corporation following a protocol described at its website: http://www.reactionbiology.com/webapps/site/. The % data were the average from two determinations. ATP concentration used: 10 μM; Staurosporine was used as the positive control.
(§2) Biochemical assays for all Limk inhibitors and kinase profiling were carried out in Reaction Biology Corporation and followed the protocols described on its website. […] Compounds were tested at 1 μM with duplicate experiments in profiling assays. […] Reactions were carried out at 10 μM ATP, 1 μM substrate cofilin, and 50 nM Limk1 (final concentrations).

AMPK(A1/B1/G1) = molecular target: T2, AMPK(A1/B1/G1) (Homo sapiens, UniProt Q13131)
T2 construct: purchased Reaction Biology Corporation
Description: as §1, §2

BRAF = molecular target: T3, BRAF (Homo sapiens, UniProt P15056)
T3 construct: purchased Reaction Biology Corporation
Description: as §1, §2

BTK = molecular target: T4, BTK (Homo sapiens, UniProt Q06187)
T4 construct: purchased Reaction Biology Corporation
Description: as §1, §2

CAMK2b = molecular target: T5, CAMK2b (Homo sapiens, UniProt Q13554)
T5 construct: purchased Reaction Biology Corporation
Description: as §1, §2

CDK2/cyclin A = molecular target: T6, CDK2/cyclin A (Homo sapiens, UniProt P24941)
T6 construct: purchased Reaction Biology Corporation
Description: as §1, §2

CK1d = molecular target: T7, CK1d (Homo sapiens, UniProt P48730)
T7 construct: purchased Reaction Biology Corporation
Description: as §1, §2

ERK2/MAPK1 = molecular target: T8, ERK2/MAPK1 (Homo sapiens, UniProt P28482)
T8 construct: purchased Reaction Biology Corporation
Description: as §1, §2

FLT3 = molecular target: T9, FLT3 (Homo sapiens, UniProt P36888)
T9 construct: purchased Reaction Biology Corporation
Description: as §1, §2

IGFIR = molecular target: T10, IGFIR (Homo sapiens, UniProt P08069)
T10 construct: purchased Reaction Biology Corporation
Description: as §1, §2

IKKa/CHUK = molecular target: T11, IKKa/CHUK (Homo sapiens, UniProt O15111)
T11 construct: purchased Reaction Biology Corporation
Description: as §1, §2

IKKb/IKBKB = molecular target: T12, IKKb/IKBKB (Homo sapiens, UniProt O14920)
T12 construct: purchased Reaction Biology Corporation
Description: as §1, §2

IKKe/IKBKE = molecular target: T13, IKKe/IKBKE (Homo sapiens, UniProt Q14164)
T13 construct: purchased Reaction Biology Corporation
Description: as §1, §2

JNK1 = molecular target: T14, JNK1 (Homo sapiens, UniProt P45983)
T14 construct: purchased Reaction Biology Corporation
Description: as §1, §2

JNK3 = JNK3 (Homo sapiens, UniProt P53779)
Description: as §1, §2

KDR/VEGFR2 = molecular target: T15, KDR/VEGFR2 (Homo sapiens, UniProt P35968)
T15 construct: purchased Reaction Biology Corporation
Description: as §1, §2

MEK1 = molecular target: T16, MEK1 (Homo sapiens, UniProt Q02750)
T16 construct: purchased Reaction Biology Corporation
Description: as §1, §2

MLCK/MYLK = molecular target: T17, MLCK/MYLK (Homo sapiens, UniProt Q15746)
T17 construct: purchased Reaction Biology Corporation
Description: as §1, §2

MRCKa/CDC42BPA = molecular target: T18, MRCKa/CDC42BPA (Homo sapiens, UniProt Q5VT25)
T18 construct: purchased Reaction Biology Corporation
Description: as §1, §2

NEK1 = molecular target: T19, NEK1 (Homo sapiens, UniProt Q96PY6)
T19 construct: purchased Reaction Biology Corporation
Description: as §1, §2

P38a/MAPK14 = molecular target: T20, P38a/MAPK14 (Homo sapiens, UniProt Q16539)
T20 construct: purchased Reaction Biology Corporation
Description: as §1, §2

PAK2 = molecular target: T21, PAK2 (Homo sapiens, UniProt Q13177)
T21 construct: purchased Reaction Biology Corporation
Description: as §1, §2

PDGFRb = molecular target: T22, PDGFRb (Homo sapiens, UniProt P09619)
T22 construct: purchased Reaction Biology Corporation
Description: as §1, §2

PIM2 = molecular target: T23, PIM2 (Homo sapiens, UniProt Q9P1W9)
T23 construct: purchased Reaction Biology Corporation
Description: as §1, §2

PKA = molecular target: T24, PKA (Homo sapiens, UniProt P17612)
T24 construct: purchased Reaction Biology Corporation
Description: as §1, §2

PKCa = molecular target: T25, PKCa (Homo sapiens, UniProt P17252)
T25 construct: purchased Reaction Biology Corporation
Description: as §1, §2

PKN1/PRK1 = molecular target: T26, PKN1/PRK1 (Homo sapiens, UniProt Q16512)
T26 construct: purchased Reaction Biology Corporation
Description: as §1, §2

RET = molecular target: T27, RET (Homo sapiens, UniProt P07949)
T27 construct: purchased Reaction Biology Corporation
Description: as §1, §2

ROCK2 = molecular target: T28, ROCK2 (Homo sapiens, UniProt O75116)
T28 construct: purchased Reaction Biology Corporation
Description: as §1, §2

SGK1 = molecular target: T29, SGK1 (Homo sapiens, UniProt O00141)
T29 construct: purchased Reaction Biology Corporation
Description: as §1, §2

SLK/STK2 = molecular target: T30, SLK/STK2 (Homo sapiens, UniProt Q9H2G2)
T30 construct: purchased Reaction Biology Corporation
Description: as §1, §2

STK33 = molecular target: T31, STK33 (Homo sapiens, UniProt Q9BYT3)
T31 construct: purchased Reaction Biology Corporation
Description: as §1, §2

TESK1 = molecular target: T32, TESK1 (Homo sapiens, UniProt Q15569)
T32 construct: purchased Reaction Biology Corporation
Description: as §1, §2

TLK1 = molecular target: T33, TLK1 (Homo sapiens, UniProt Q9UKI8)
T33 construct: purchased Reaction Biology Corporation
Description: as §1, §2

WEE1 = molecular target: T34, WEE1 (Homo sapiens, UniProt P30291)
T34 construct: purchased Reaction Biology Corporation
Description: as §1, §2

c-Kit = molecular target: T35, c-Kit (Homo sapiens, UniProt P10721)
T35 construct: purchased Reaction Biology Corporation
Description: as §1, §2

mTOR/FRAP1 = molecular target: T36, mTOR/FRAP1 (Homo sapiens, UniProt P42345)
T36 construct: purchased Reaction Biology Corporation
Description: as §1, §2

p70S6K/RPS6KB1 = molecular target: T37, p70S6K/RPS6KB1 (Homo sapiens, UniProt P23443)
T37 construct: purchased Reaction Biology Corporation
Description: as §1, §2

T26 sequence (Q16512 whole entry): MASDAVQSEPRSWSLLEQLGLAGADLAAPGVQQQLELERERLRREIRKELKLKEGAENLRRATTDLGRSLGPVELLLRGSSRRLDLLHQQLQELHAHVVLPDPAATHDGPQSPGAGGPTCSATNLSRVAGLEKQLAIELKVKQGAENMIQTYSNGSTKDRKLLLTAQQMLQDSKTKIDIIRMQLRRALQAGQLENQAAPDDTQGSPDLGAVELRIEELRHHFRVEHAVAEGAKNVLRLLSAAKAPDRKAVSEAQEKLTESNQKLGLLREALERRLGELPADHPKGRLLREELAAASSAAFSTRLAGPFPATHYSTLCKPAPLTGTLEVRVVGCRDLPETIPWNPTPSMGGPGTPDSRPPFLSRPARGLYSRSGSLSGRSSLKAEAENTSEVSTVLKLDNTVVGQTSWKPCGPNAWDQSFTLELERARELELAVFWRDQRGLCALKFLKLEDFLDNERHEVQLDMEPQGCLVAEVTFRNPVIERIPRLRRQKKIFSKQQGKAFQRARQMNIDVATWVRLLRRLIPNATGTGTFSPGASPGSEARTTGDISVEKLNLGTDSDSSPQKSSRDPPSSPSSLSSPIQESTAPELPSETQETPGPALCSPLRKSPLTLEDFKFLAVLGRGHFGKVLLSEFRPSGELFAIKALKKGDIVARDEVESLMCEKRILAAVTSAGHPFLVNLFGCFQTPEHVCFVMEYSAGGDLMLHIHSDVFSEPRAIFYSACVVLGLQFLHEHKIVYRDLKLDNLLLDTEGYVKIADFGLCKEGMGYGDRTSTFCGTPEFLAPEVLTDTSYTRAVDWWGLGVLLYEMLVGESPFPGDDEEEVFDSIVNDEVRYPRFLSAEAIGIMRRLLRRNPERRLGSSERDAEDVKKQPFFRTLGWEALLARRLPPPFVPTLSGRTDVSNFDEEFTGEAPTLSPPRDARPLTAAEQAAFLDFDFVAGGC
T34 sequence (P30291 whole entry): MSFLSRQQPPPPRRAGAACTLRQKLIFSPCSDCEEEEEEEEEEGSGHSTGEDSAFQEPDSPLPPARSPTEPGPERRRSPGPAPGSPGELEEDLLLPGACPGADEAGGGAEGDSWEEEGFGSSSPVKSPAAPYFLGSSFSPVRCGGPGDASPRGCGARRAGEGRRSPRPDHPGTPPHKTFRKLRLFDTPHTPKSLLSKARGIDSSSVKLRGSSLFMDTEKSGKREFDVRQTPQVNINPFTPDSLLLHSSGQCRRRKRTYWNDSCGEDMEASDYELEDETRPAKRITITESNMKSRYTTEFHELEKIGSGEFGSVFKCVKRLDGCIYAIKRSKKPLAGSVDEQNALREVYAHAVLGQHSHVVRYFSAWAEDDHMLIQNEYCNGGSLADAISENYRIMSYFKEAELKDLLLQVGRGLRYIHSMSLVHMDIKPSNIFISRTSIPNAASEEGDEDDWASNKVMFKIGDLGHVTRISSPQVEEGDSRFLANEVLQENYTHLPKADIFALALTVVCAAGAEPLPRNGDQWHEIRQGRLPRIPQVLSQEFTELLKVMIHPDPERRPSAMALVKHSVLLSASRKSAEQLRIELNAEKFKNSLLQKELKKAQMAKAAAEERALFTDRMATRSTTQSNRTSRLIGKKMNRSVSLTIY
T7 sequence (P48730 whole entry): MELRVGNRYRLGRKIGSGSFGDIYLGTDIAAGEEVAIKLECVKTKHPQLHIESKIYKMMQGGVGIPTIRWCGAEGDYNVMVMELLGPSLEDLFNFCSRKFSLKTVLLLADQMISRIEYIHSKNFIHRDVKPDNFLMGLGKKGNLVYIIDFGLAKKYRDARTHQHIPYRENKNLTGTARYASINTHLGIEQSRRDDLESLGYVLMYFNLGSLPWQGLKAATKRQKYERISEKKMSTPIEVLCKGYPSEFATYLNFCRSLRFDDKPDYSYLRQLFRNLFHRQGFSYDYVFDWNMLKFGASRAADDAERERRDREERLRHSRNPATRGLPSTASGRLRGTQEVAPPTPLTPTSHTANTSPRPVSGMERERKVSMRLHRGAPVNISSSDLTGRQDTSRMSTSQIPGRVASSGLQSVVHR
Sequence of JNK3 (P53779 whole entry, species assumed): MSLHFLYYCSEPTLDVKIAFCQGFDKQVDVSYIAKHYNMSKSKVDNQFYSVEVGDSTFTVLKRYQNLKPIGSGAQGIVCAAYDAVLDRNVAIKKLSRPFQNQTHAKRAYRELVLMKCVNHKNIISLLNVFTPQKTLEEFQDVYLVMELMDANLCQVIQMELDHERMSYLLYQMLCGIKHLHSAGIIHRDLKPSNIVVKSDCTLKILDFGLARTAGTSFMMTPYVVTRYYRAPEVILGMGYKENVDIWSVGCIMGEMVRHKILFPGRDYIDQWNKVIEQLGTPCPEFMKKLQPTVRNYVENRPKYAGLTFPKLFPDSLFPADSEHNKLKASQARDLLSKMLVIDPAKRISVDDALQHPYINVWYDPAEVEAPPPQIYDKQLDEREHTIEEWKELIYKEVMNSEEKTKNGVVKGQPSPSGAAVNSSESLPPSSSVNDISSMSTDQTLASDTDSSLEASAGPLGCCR
T14 sequence (P45983 whole entry): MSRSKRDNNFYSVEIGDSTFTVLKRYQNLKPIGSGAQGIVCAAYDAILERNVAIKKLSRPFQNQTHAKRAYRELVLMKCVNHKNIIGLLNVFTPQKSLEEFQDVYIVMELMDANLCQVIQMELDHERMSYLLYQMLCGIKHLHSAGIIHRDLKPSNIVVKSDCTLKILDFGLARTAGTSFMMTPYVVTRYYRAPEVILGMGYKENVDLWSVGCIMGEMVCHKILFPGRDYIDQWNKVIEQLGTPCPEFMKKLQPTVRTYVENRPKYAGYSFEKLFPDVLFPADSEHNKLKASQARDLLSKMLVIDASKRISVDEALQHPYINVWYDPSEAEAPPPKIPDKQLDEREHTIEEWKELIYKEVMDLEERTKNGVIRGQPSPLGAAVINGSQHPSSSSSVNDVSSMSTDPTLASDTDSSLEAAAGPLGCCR
T35 sequence (P10721 26-976): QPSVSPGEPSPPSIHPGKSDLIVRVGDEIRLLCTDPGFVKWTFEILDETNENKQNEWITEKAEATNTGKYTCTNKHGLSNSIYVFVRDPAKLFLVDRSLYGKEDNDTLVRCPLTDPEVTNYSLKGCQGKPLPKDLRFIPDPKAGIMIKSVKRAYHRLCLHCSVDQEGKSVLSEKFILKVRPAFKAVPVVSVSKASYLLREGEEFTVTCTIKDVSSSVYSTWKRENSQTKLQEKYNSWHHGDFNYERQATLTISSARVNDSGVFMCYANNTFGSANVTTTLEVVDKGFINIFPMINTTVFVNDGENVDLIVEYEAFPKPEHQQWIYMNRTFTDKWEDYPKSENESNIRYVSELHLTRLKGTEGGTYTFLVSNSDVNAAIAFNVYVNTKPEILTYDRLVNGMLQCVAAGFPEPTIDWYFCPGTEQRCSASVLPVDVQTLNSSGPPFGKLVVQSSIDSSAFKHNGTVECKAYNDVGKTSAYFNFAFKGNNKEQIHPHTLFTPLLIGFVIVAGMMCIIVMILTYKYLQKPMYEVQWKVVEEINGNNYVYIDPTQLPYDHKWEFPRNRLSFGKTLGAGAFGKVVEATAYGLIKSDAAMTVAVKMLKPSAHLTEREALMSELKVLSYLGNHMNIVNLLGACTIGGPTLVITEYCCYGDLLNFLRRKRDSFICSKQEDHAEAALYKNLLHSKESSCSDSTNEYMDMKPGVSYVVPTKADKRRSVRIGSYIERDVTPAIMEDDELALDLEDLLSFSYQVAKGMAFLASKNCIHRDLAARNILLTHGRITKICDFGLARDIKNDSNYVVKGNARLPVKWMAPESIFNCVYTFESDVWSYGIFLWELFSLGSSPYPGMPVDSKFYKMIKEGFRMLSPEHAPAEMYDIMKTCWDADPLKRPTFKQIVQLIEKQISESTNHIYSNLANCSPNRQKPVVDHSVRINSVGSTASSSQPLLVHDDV
T23 sequence (Q9P1W9 whole entry): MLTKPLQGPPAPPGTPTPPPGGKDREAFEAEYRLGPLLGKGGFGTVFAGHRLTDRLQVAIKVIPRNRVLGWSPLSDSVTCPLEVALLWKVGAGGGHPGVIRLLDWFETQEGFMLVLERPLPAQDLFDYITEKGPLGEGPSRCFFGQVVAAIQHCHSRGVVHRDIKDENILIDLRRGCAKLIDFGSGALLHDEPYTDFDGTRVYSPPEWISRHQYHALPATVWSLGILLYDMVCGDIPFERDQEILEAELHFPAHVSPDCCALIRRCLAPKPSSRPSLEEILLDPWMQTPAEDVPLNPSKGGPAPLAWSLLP
T20 sequence (Q16539 whole entry): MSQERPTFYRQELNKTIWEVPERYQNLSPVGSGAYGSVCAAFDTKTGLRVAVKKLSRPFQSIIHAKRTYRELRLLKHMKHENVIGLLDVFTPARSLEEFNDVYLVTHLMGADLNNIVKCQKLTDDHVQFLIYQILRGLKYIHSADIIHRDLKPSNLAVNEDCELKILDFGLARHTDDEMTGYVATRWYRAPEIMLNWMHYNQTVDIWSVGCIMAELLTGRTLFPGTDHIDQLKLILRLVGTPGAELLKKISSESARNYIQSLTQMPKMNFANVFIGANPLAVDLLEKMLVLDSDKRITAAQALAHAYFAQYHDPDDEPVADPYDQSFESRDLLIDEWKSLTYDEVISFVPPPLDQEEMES
T8 sequence (P28482 whole entry): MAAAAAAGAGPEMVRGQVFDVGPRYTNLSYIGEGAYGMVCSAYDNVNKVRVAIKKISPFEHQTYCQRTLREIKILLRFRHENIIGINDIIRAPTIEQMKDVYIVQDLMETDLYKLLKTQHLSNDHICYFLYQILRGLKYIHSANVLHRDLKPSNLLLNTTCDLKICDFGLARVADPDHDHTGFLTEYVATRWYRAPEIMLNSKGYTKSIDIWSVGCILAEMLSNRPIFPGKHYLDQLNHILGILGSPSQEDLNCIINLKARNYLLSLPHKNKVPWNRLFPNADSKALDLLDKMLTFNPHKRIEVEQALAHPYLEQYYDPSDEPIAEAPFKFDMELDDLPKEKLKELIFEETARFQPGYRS

With COC(=O)c1ccc2[nH]c(C3CCN(c4ncnc5[nH]cc(Cl)c45)CC3)nc2c1 [Compound R10015, Methyl 2-(1-(5-chloro-7H-pyrrolo[2,3-d]pyrimidin-4-yl)piperidin-4-yl)-1Hbenzo[d]imidazole-5-carboxylate] as the compound, how does the activity at 1 µM (ALK) read?
Its activity at 1 µM is 95.5%.

What about the activity at 1 µM (AMPK(A1/B1/G1)) of the same compound?
The activity at 1 µM was 76.6%.

What about the activity at 1 µM (BRAF) of the same compound?
Its activity at 1 µM is 91.9%.

What about the activity at 1 µM (BTK) of the same compound?
The activity at 1 µM was 90.2%.

What about the activity at 1 µM (CAMK2b) of the same compound?
The activity at 1 µM was 90.8%.

And the activity at 1 µM (CDK2/cyclin A)?
Its activity at 1 µM is 82.7%.

And the activity at 1 µM (CK1d)?
The activity at 1 µM was 85%.

And the activity at 1 µM (ERK2/MAPK1)?
Its activity at 1 µM is 87.2%.

What about the activity at 1 µM (FLT3) of the same compound?
The activity at 1 µM was 32.2%.

What about the activity at 1 µM (IGFIR) of the same compound?
Its activity at 1 µM is 90%.

What about the activity at 1 µM (IKKa/CHUK) of the same compound?
The activity at 1 µM was 90.5%.

And the activity at 1 µM (IKKb/IKBKB)?
The activity at 1 µM was 85.1%.

What about the activity at 1 µM (IKKe/IKBKE) of the same compound?
The activity at 1 µM was 84.1%.

And the activity at 1 µM (JNK1)?
The activity at 1 µM was 95.2%.

And the activity at 1 µM (JNK3)?
The activity at 1 µM was 85.7%.

And the activity at 1 µM (KDR/VEGFR2)?
Its activity at 1 µM is 87.2%.

And the activity at 1 µM (MEK1)?
The activity at 1 µM was 75.6%.

What about the activity at 1 µM (MLCK/MYLK) of the same compound?
The activity at 1 µM was 83.3%.

What about the activity at 1 µM (MRCKa/CDC42BPA) of the same compound?
Its activity at 1 µM is 96.5%.

What about the activity at 1 µM (NEK1) of the same compound?
The activity at 1 µM was 67.2%.

What about the activity at 1 µM (P38a/MAPK14) of the same compound?
The activity at 1 µM was 98.6%.

What about the activity at 1 µM (PAK2) of the same compound?
Its activity at 1 µM is 98.2%.

And the activity at 1 µM (PDGFRb)?
Its activity at 1 µM is 78.6%.

What about the activity at 1 µM (PIM2) of the same compound?
Its activity at 1 µM is 97.6%.

What about the activity at 1 µM (PKA) of the same compound?
Its activity at 1 µM is 24%.

And the activity at 1 µM (PKCa)?
Its activity at 1 µM is 47.5%.

What about the activity at 1 µM (PKN1/PRK1) of the same compound?
The activity at 1 µM was 58.6%.

What about the activity at 1 µM (RET) of the same compound?
Its activity at 1 µM is 46.5%.

What about the activity at 1 µM (ROCK2) of the same compound?
The activity at 1 µM was 29.5%.

What about the activity at 1 µM (SGK1) of the same compound?
Its activity at 1 µM is 61%.

And the activity at 1 µM (SLK/STK2)?
Its activity at 1 µM is 108%.

And the activity at 1 µM (STK33)?
The activity at 1 µM was 56.5%.

What about the activity at 1 µM (TESK1) of the same compound?
Its activity at 1 µM is 90.2%.

What about the activity at 1 µM (TLK1) of the same compound?
The activity at 1 µM was 98.5%.

And the activity at 1 µM (WEE1)?
Its activity at 1 µM is 97.2%.

And the activity at 1 µM (c-Kit)?
Its activity at 1 µM is 81.3%.

And the activity at 1 µM (mTOR/FRAP1)?
Its activity at 1 µM is 100%.

And the activity at 1 µM (p70S6K/RPS6KB1)?
The activity at 1 µM was 10%.
